As a reminder, the pEC50 is the negative decadic logarithm of the EC50, by convention in mol/L. The Emax is the greatest response seen or fitted, relative to the assay's reference. In general, EC50 refers to the concentration at which the effect is half-maximal.

The assay concerns the target human mGluR5 (Homo sapiens, UniProt P41594). Description: Cell-based functional Ca2+ mobilization assay, potentiation of glutamate EC20 response (H10H cell-line). The note with it: H10H cell-line expressing recombinant human mGluR5; for Emax (%) / Emax: in presence of glutamate EC20, normalized to maximal glutamate response; for pEC50 / EC50: potentiation in presence of glutamate EC20. The protocol:
Human embryonic kidney (HEK) cells transfected with rat mGluR5 were plated in clear bottom assay plates for assay in a Functional Drug Screening System (FDSS). In the alternative assay, HEK cells transfected with human mGluR5 were plated for assay in the FDSS. In some cases the HEK cells transfected with human mGluR5 are the H10H cell line. Alternatively, the HEK cells transfected with human mGluR5 are the H12H cell line. […] The cells were loaded with a Ca^2+-sensitive fluorescent dye (e.g., Fluo-4), and the plates were washed and placed in the FDSS instrument. After establishment of a fluorescence baseline for about three seconds, the compounds of the present invention were added to the cells, and the response in cells was measured. Five minutes later, an mGluR5 agonist (e.g., glutamate, 3,5-dihydroxyphenylglycine, or quisqualate) was added to the cells, and the response of the cells was measured. Potentiation of the agonist response of mGluR5 by the compounds in the present invention was observed as an increase in response to non-maximal concentrations of agonist (here, glutamate) in the presence of compound compared to the response to agonist in the absence of compound.
The above described assay can be operated in two modes. In the first mode, a range of concentrations of the present compounds were added to cells, followed by a single fixed concentration of agonist. If a compound acted as a potentiator, an EC50 value for potentiation and a maximum extent of potentiation by the compound at this concentration of agonist was determined by non-linear curve fitting. In the second mode, several fixed concentrations of the present compounds were added to various wells on a plate, followed by a range of concentrations of agonist for each concentration of present compound; the EC50 values for the agonist at each concentration of compound were determined by non-linear curve fitting. A decrease in the EC50 value of the agonist with increasing concentrations of the present compounds (a leftward shift of the agonist concentration-response curve) is an indication of the degree of mGluR5 potentiation at a given concentration of the present compound. An increase in the EC50 value of the agonist with increasing concentrations of the present compounds (a rightward shift of the agonist concentration-response curve) is an indication of the degree of mGluR5 antagonism at a given concentration of the present compound. The second mode also indicates whether the present compounds also affect the maximum response to mGluR5 to agonists.
Human mGluR5a cDNA in pCMV6-XL6 mammalian expression plasmid was purchased from OriGene Technologies, Inc. (catalogue number SC326357) and subcloned into pcDNA3.1(−). Human embryonic kidney (HEK) 293A cells were then transfected with human mGluR5a pcDNA3.1(−) using LipofectAmine 2000 (Invitrogen) and monoclones were selected and tested for functional response using a Ca^2+ mobilization assay. Monoclones were named for the species (“H” for human) plus the location on the plate (e.g. “10H”).
HEK cells transfected with the human mGluR5a receptor were plated at 15,000 cells/well in clear-bottomed poly-D-lysine-coated assay plates (BD Falcon) in glutamate-glutamine-free growth medium and incubated overnight at 37° C. and 5% CO2. The cell-line used to obtain the data reported herein was the H10H cell-line expressing the human mGluR5 receptor. Although the H10H cell-line was used to obtain the data shown herein, the H12H cell-line expressing the human mGluR5 receptor can also be used in these assays. The following day, the growth medium was removed and the cells were washed with assay buffer containing 1× Hank's balanced salt solution (Invitrogen, Carlsbad, Calif.), 20 mM HEPES, 2.5 mM probenecid, pH 7.4 and left with 20 μL of this reagent. Following this step, the cells were loaded with calcium indicator dye, fluo-4 AM, to a final concentration of 2 μM and incubated for 40-45 min at 37° C. […]
(Calcium flux is commonly read through the fluorescence of an indicator in the cells.)

human mGluR5, sequence (P41594 21-1180 isoform P41594-2 limits assumed): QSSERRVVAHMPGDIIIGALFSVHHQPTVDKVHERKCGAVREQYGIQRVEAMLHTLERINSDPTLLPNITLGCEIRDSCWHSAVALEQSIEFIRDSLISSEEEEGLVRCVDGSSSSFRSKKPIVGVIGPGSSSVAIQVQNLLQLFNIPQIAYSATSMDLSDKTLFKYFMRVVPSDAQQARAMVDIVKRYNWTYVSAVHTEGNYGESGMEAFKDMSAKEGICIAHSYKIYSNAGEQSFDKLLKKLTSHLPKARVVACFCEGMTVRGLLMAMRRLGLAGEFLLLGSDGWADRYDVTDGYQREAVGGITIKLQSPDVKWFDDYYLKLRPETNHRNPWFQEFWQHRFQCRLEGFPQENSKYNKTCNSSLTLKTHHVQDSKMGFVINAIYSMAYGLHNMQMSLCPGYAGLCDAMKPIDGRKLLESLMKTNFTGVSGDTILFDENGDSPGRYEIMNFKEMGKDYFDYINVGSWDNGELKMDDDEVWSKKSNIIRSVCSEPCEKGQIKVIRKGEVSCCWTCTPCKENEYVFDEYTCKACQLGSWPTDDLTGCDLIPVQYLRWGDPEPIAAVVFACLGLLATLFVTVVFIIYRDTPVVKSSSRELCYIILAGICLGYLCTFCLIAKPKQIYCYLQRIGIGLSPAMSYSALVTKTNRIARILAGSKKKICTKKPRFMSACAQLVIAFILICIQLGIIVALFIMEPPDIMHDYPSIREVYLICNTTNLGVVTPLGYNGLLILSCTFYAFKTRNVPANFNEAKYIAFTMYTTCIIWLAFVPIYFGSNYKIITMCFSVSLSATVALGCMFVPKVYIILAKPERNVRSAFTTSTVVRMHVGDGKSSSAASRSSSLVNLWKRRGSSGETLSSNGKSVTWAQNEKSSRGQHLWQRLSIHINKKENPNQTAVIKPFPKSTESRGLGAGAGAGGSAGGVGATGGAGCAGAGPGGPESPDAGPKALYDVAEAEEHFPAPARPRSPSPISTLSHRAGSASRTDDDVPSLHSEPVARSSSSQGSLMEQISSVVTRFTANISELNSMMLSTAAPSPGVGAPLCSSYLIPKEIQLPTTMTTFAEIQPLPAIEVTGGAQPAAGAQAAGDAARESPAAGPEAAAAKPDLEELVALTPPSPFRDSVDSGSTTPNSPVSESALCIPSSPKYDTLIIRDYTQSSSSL

As for `O=C1CCC(C(=O)N2CCc3nc(COc4ccccc4)oc3C2)N1` (stereo not shown) [Example B105], the “Emax (%)” value was 22% and the pEC50 is reported as <4.52. For the compound `N#Cc1cc(F)cc(C(=O)N2CCc3nc(COc4ccccc4)oc3C2)c1` [Example B50], the “Emax (%)” value was found to be 57% and the pEC50 is 6.43. Consider `CC(C)(C#N)C(=O)N1CCc2nc(COc3ccccc3)oc2C1` [Example B62], for which the Emax was determined as 34% and the EC50 was 339 nM. Take `Cc1cccc(OCc2nc3c(o2)CN(C(=O)c2ccc(F)cc2)CC3)c1` [Example B66]: the Emax came out at 63% and the 50% effective concentration (EC50) is 1200 nM. For the compound `COCC(=O)N1CCc2nc(COc3ccccc3)oc2C1` [Example B138], the “Emax (%)” value was 27% and the pEC50 is recorded as <4.52.

As for `Cc1nc(C(=O)N2CCc3nc(COc4ccccc4)oc3C2)no1` [Example B161], the Emax stood at 20% and the EC50 is > 10000 nM. Regarding `O=C(c1nccs1)N1CCc2nc(COc3ccccc3)oc2C1` [Example B159], the “Emax (%)” value is 23% and the pEC50 is recorded as <4.52. `N#Cc1cc(C(=O)N2CCc3nc(COc4ccccc4)oc3C2)ccn1` [Example B87]: the “Emax (%)” value is recorded as 72% and the pEC50 came to 5.89. The matching figures for `CC(C)(C)OC(=O)NC(C(=O)N1CCc2nc(COc3ccccc3)oc2C1)C(C)(C)C` (stereo not shown) [Example B140]: 58% and 5.77. For `O=C(CC1CC1)N1CCc2nc(COc3ccccc3)oc2C1` [Example B2, 5-(cyclopropylacetyl)-2-(phenoxymethyl)-4,5,6,7-tetrahydro[1,3]oxazolo[5,4-c]pyridine], the Emax came out at 58% and the EC50 was 3550 nM. With `N#Cc1ccccc1C(=O)N1CCc2nc(COc3ccccc3)oc2C1` [Example B46], the Emax worked out at 63% and the EC50 was 1620 nM. `O=C(c1ccc(F)cc1)N1CCCc2nc(COc3ccccc3)sc2C1` [Example B25]: the “Emax (%)” value worked out at 83% and the pEC50 amounted to 6.35. In the case of `O=C(c1n[nH]c2ccncc12)N1CCc2nc(COc3ccccc3)oc2C1` [Example B143], the maximal response (Emax) amounted to 68% and the negative logarithm of the EC50 (pEC50) is reported as 5.85. Regarding `CC(C)(C)[C@H](N)C(=O)N1CCc2nc(COc3ccccc3)oc2C1` [Example B54], the Emax came out at 24% and the EC50 was 4170 nM. `O=C(c1cccc(F)c1)N1CCc2nc(COc3ccc(F)cc3)oc2C1` [Example B100]: the Emax came to 60.5% and the EC50 is 245 nM.

In the case of `O=C(c1ncccc1F)N1CCc2nc(COc3ccccc3)oc2C1` [Example B47], the Emax was found to be 56% and the EC50 was > 10000 nM. For `O=C(c1cc2ccccc2[nH]1)N1CCc2nc(COc3ccccc3)oc2C1` [Example B112], the “Emax (%)” value is on record as 12% and the pEC50 was <4.52. `Cc1ccc(C(=O)N2CCc3nc(COc4ccccc4)oc3C2)o1` [Example B61]: the Emax was 52.5% and the EC50 is 302 nM. For `O=C(c1n[nH]c2ncccc12)N1CCc2nc(COc3ccccc3)oc2C1` [Example B147], the Emax is 74% and the EC50 is 363 nM.

Turning to `CC(C)(C)C(=O)N1CCc2nc(COc3ccccc3)oc2C1` [Example B142], the “mGluR5 activity type (footnote)” value is given as “**The indicated compound is a mGluR5 antagonist”.

With `O=C(c1ccc(F)cc1)N1CCc2nc(COc3ccc(Br)cc3)oc2C1` [Example B129], the Emax turned out to be 27% and the EC50 is > 30200 nM.

Turning to `Cn1c(C(=O)N2CCc3nc(COc4ccccc4)oc3C2)cc2ccccc21` [Example B36, 5-[(1-methyl-1H-indol-2-yl)carbonyl]-2-(phenoxymethyl)-4,5,6,7-tetrahydro[1,3]oxazolo[5,4-c]pyridine], the Emax worked out at 56% and the EC50 is 501 nM. For `O=C(c1c(F)cccc1F)N1CCc2nc(COc3ccccc3)oc2C1` [Example B16] the same measures were 82% and 372 nM.

Regarding `Cc1ccc(C(=O)N2CCc3nc(COc4ccccc4)oc3C2)n1C` [Example B103], the “Emax (%)” value turned out to be 78% and the pEC50 is 6.44. Regarding `O=C(c1cccc(F)c1F)N1CCc2nc(COc3cccc(F)c3)oc2C1` [Example B28], the “Emax (%)” value was determined as 72% and the pEC50 is 6.24.

`O=C(c1ccc(F)cc1)N1CCc2nc(COc3ccccc3F)oc2C1` [Example B13]: the Emax was determined as 68% and the EC50 was 1150 nM.

For `O=C(N1CCc2nc(COc3ccccc3)oc2C1)C1(c2ccccc2)CC1` [Example B77], the “Emax (%)” value is recorded as 62% and the pEC50 amounted to 6.00.

Regarding `O=C(c1ccc(F)cn1)N1CCc2nc(COc3cccc(F)c3)oc2C1` [Example B45], the “Emax (%)” value came to 66% and the negative-log EC50 (pEC50) came out at 5.51. On to `O=C(Cc1ccc(F)cc1)N1CCc2nc(COc3ccccc3)oc2C1` [Example B51], for which the “Emax (%)” value worked out at 61% and the pEC50 is reported as 5.92. Consider `O=C(c1cnc2ccccc2n1)N1CCc2nc(COc3ccccc3)oc2C1` [Example B93], for which the “Emax (%)” value was 52% and the pEC50 is recorded as 5.73. Consider `Cc1noc(C(=O)N2CCc3nc(COc4ccccc4)oc3C2)n1` [Example B119], for which the Emax stood at 22% and the EC50 was > 10000 nM. As for `O=C(c1ccc(F)cc1)N1CCc2oc(COc3ccccc3)nc2C1` [Example B22], the Emax was determined as 65% and the concentration giving a half-maximal response (EC50) is 1620 nM. For `O=C(c1ccc(F)cc1)N1Cc2nc(COc3ccccc3)oc2C1` [Example B21], the “Emax (%)” value is 81% and the pEC50 is 6.05.

With `O=C(c1cnccn1)N1CCc2nc(COc3ccccc3)oc2C1` [Example B148], the “Emax (%)” value is on record as 43% and the pEC50 is given as <5. The matching figures for `O=C(c1cnn[nH]1)N1CCc2nc(COc3ccccc3)oc2C1` [Example B125]: 45% and <5. For `Cc1cccc(C(=O)N2CCc3nc(COc4ccccc4)oc3C2)n1` [Example B44] the same measures were 64% and 5.7. Take `Cc1ccc(C(=O)N2CCc3nc(COc4ccccc4)oc3C2)s1` [Example B110]: the “Emax (%)” value is listed as 57% and the pEC50 is recorded as 6.70. As to `O=C(c1coc2ccccc12)N1CCc2nc(COc3ccccc3)oc2C1` [Example B146], the Emax was 61% and the EC50 is 407 nM.

For `O=C(c1ccc(F)cc1F)N1CCc2nc(COc3ccccc3)sc2C1` [Example B12], the “Emax (%)” value is on record as 69% and the pEC50 turned out to be 6.06.

In the case of `O=C(c1cc[nH]n1)N1CCc2nc(COc3ccccc3)oc2C1` [Example B115], the “Emax (%)” value amounted to 46% and the pEC50 is on record as <5. In the case of `O=C(c1ccc(F)cc1)N1CCc2nc(COc3cccc(Cl)c3)oc2C1` [Example B69], the “Emax (%)” value is given as 72% and the pEC50 turned out to be 5.85. Take `O=C(c1cccnn1)N1CCc2nc(COc3ccccc3)oc2C1` [Example B162]: the Emax came out at 17% and the EC50 was > 30200 nM. As to `Cc1ccnc(OCc2nc3c(o2)CN(C(=O)c2ccc(F)cc2)CC3)c1` [Example B33, 5-[(4-fluorophenyl)carbonyl]-2-{[(4-methylpyridin-2-yl)oxy]methyl}-4,5,6,7-tetrahydro[1,3]oxazolo[5,4-c]pyridine], the Emax turned out to be 69% and the EC50 was 2000 nM.

The record behind these values is patent US9090632B2, “Bicyclic oxazole and thiazole compounds and their use as allosteric modulators of mGluR5 receptors” (Vanderbilt University, priority 2010, dated 2015).
